Where “and” joins values, the source holds several entries; their conditions need not be identical. Equal entries are not always repeated.
How the values were obtained:
[1] = In vitro-in vivo extrapolation (IVIVE) to estimate Css, rat; conditions: for Css / Css (steady-state concentration, plasma): IVIVE, BW 0.25 kg; for Css: ID 0.042 mg/kg/hr; for Css (steady-state concentration, plasma): intake dosage 1 mg/kg/day; for fraction unbound at 300 min: Sprague Dawley, blood, fub=fup/(1-hemocrit ref value), hematocrit 0.439; for Clint: scaled (HPGL 117, Vl 9.5 g)
Procedure: Fraction unbound (fu) in plasma (fup) and percent stability calculations are detailed in Supplementary Text S10. Hepatic clearance, the fu in blood (fub) (fu in plasma adjusted for blood:plasma partitioning), and renal clearance were used to derive the steady-state concentration (Css) of each compound that will be used for in vitro–in vivo extrapolation (IVIVE). Renal clearance was calculated using the glomerular filtration rate (a species-dependent constant) and the fub. The Css calculation is detailed in Supplementary Text S11.
Linear regression analysis in conjunction […]
cells in the Clint equation. […]
concentration by the T300 min concentration (Equation E). Chemical stability in plasma was assessed […]
(F) Percent Stability = T300minutesT60minutes∗100 […]
blood (fub) of the parent compound. The Clhepatic calculation is shown in the second part of the denominator of Equation G; it is the product of the species dependent liver blood flow constant, the fub of the parent compound, and the experimentally derived intrins ic clearance (s hown in Equation D) divided by the sum these three values. All values used in Equation G are for first order conditions of metabolism in the liver. All calculations, scalars, and species dependent values used to conduct the Css calculation to facilitate in vitro-in vivo extrapolation (IVIVE) are provided Table S19 within the Excel worksheet, the tab […]
Based on the principle of reverse dosimetry, the Css values derived from IVIVE will be u sed as conversion factors to generate AEDs according to Equation H. In this equation, the AED is linearly related to the in vitro concentration and inversely related to the Css. It is only valid for first-order metabolism that is expected at ambient exposure levels.
(H) AED ൮ mgkg൲ = in vitro concentration (µM )

rat hepatocytes = assay: Hepatocyte metabolic stability (clearance) assay, rat hepatocytes; conditions: for Negative Control Data, Heat Treated (HT), 15 min / Negative Control Data, Heat Treated (HT), 240 min: heat treated rat hepatocytes; for Negative Control Data, Heat Treated (HT), 15 min / Negative Control Data, Heat Treated (HT), 240 min / Negative Control Data, No cells (NC), 15 min / Negative Control Data, No cells (NC), 240 min / Ln Concentration, 0 min / Ln Concentration, 15 min / Ln Concentration, 30 min / Ln Concentration, 60 min / Ln Concentration, 120 min / Ln Concentration, 240 min / Linear Regression Best-Fit Slope (Ln concentration vs time): 1000 nM; for Negative Control Data, Heat Treated (HT), 15 min / Negative Control Data, Heat Treated (HT), 240 min / Negative Control Data, No cells (NC), 15 min / Negative Control Data, No cells (NC), 240 min: Ln concentration; for Negative Control Data, Heat Treated (HT), 15 min / Negative Control Data, Heat Treated (HT), 240 min / Negative Control Data, No cells (NC), 15 min / Negative Control Data, No cells (NC), 240 min / Ln Concentration, 0 min / Ln Concentration, 15 min / Ln Concentration, 30 min / Ln Concentration, 60 min / Ln Concentration, 120 min / Ln Concentration, 240 min: Rep 1-3; for Clin vitro: rat hepatocytes, 1 µM; for Ln Concentration, 0 min / Ln Concentration, 15 min / Ln Concentration, 30 min / Ln Concentration, 60 min / Ln Concentration, 120 min / Ln Concentration, 240 min / Linear Regression Best-Fit Slope (Ln concentration vs time): suspended rat hepatocytes; for Linear Regression Best-Fit Slope (Ln concentration vs time): time in min
Procedure: (§1) Information on the chemicals and materials used in the hepatocyte metabolic work can be found in Supplementary Text S9 and Table S3. In vitro evaluations of hepatocyte metabolic stability were performed in human and rat hepatocytes, as previously described. Briefly, pooled, cryopreserved hepatocyte suspensions were thawed, assessed for viability, and then diluted in William’s medium E containing dexamethasone and cell maintenance cocktail B to achieve a cell density of 50,000 cells/100 µL. The assay was started by adding hepatocyte suspensions to wells of 96-well polypropylene plates containing an equal volume of media with 2 µM of analyte (final assay concentration: 1 µM). Plates were placed in a 37 °C cell culture incubator (5% CO2) on a shaker set to 200 rpm. Time points assessed were T0, T15, T30, T60, T120, and T240 min. At each time point, the plates were removed from the shaker and the incubates were crashed with an equal volume of ice-cold ACN containing 1.2% FA and 16 ng/mL of ^13C3 -HFPO-DA. After chilling and centrifugation at 4122× g, the supernatants were transferred to new collection plates and stored at −70 °C until analysis for the parent compound on the Waters instrumentation described below. Immediately prior to analysis, samples were thawed, vortexed, and centrifuged at 4200× g, and then diluted 1:4 in 95:5 H2O/ACN with 2.5 mM of ammonium acetate. Negative controls, including no cell controls and metabolically inactivated hepatocytes, were run concurrently to assess the chemical stability over the time course.
(§2) Intrinsic clearance (Clint; hepatic clearance) calculations are detailed in Supplementary Text S9 [57].
(§3) Targeted, quantitative analysis of in vitro hepatocyte metabolic stability and plasma protein binding assay samples was conducted on a Waters Xevo-TQS micro mass spectrometer (Waters, Milford, MA, USA) ultra-high-performance liquid chromatography tandem mass spectrometry system (UPLC-MS/MS), modified with a PFAS analysis kit. Samples were analyzed in negative ion mode with UniSpray ionization. A CORTECS T3 column (Waters CORTECS, 3 × 100 mm, particle size 2.7 µm) was used for chromatographic separation with a flow rate of 0.6 mL/min and a temperature of 55 °C. Gradient elution was used with eluent A (95:5 H2O/ACN) and eluent B (95:5 ACN/H2O) with 2.5 mM of ammonium acetate. The gradient is available in Table S11. Additional details for MS parameters are found in Table S12 and monitored transitions are found in Table S13.
(§4) Table S2: Data processing parameters used with Sciex MarkerView 1.3.1.
(§5) Support ing Text S9: Hepatocyte Metabolic Stability Assay Materials, Chemicals, and Calculations
(§6) Pooled human and rat cryopreserved primary hepatocyte suspensions were both obtained from
(§7) BioIVT, a US Food and Drug Administration-licensed and inspected donor center, and produced using
(§8) non-transplantable tissue.
(§9) William’s E media, dexamet hasone (98% pure), and cell maintenance cocktail B were obtained from
(§10) Thermo Fisher Scientific (Waltham, MA, USA), the OptiThaw hepatocyte kit from Sekisui/Xenotech
(§11) (Tokyo, Japan), and the trypan blue s (Sekisui/ Xenotech, Tokyo, Japan) and the trypan blue solution from […]

human hepatocytes = assay: Hepatocyte metabolic stability (clearance) assay, human hepatocytes; conditions: for Negative Control Data, No cells (NC), Ln Concentration / Negative Control Data, Heat Treated (HT), Ln Concentration / Ln Concentration / Linear Regression Best-Fit Slope (ln concentration vs time): 1000 nM; for Negative Control Data, No cells (NC), Ln Concentration / Negative Control Data, Heat Treated (HT), Ln Concentration / Ln Concentration: Rep 1-3; for Clin vitro / Negative Control Data, Heat Treated (HT), Ln Concentration / Ln Concentration / Linear Regression Best-Fit Slope (ln concentration vs time): human hepatocytes; for Clin vitro: 1 µM; for Linear Regression Best-Fit Slope (ln concentration vs time): time in min
Procedure: as §1, §2, §3, §4, §5, §6, §7, §8, §9, §10, §11

Structure (SMILES)	Clhep (hepatic clearance) [1]	Css [1]	Css (steady-state concentration, plasma) [1]	fraction unbound at 300 min [1]	Clint [1]	Negative Control Data, Heat Treated (HT), 15 min (rat hepatocytes)	Negative Control Data, Heat Treated (HT), 240 min (rat hepatocytes)	Negative Control Data, No cells (NC), 15 min (rat hepatocytes)	Negative Control Data, No cells (NC), 240 min (rat hepatocytes)	Clin vitro (rat hepatocytes)	Ln Concentration, 0 min (rat hepatocytes)	Ln Concentration, 15 min (rat hepatocytes)	Ln Concentration, 30 min (rat hepatocytes)	Ln Concentration, 60 min (rat hepatocytes)	Ln Concentration, 120 min (rat hepatocytes)	Ln Concentration, 240 min (rat hepatocytes)	Linear Regression Best-Fit Slope (Ln concentration vs time) (rat hepatocytes)	Negative Control Data, No cells (NC), Ln Concentration (human hepatocytes; 15 min)	Negative Control Data, No cells (NC), Ln Concentration (human hepatocytes; 240 min)	Clin vitro (human hepatocytes)	other results
O=C(O)C(F)(OC(F)(F)C(F)(OC(F)(F)C(F)(F)C(F)(F)F)C(F)(F)F)C(F)(F)F (stereo not drawn) [HFPO-TA, perfluoro-(2,5-dimethyl-3,6-dioxanonanoic) acid]	0 L/h	40600 ng/mL	81.84 µM and 81.8399 µM	0.0032	0 µL/min	4.1725 and 4.8897 and 5.4522	4.9004 and 4.9391 and 4.9107	4.1725 and 4.8897 and 5.4522	3.9230 and 4.2019 and 3.8754	0 µL/min/106 cells	4.5979 and 4.6454 and 4.5374	4.8189 and 4.7145 and 4.8521	4.7856 and 4.6050 and 4.6111	4.8438 and 4.7495 and 4.8027	4.6843 and 4.6317 and 4.5468	4.7393 and 4.9247 and 4.8505	0.0003164	4.3597 and 5.0085 and 5.1884	3.9371 and 3.9316 and 3.8367	0 µL/min/106 cells	Negative Control Data, Heat Treated (HT), Ln Concentration (human hepatocytes; 15 min): 4.3597 and 5.0085 and 5.1884; Negative Control Data, Heat Treated (HT), Ln Concentration (human hepatocytes; 240 min): 4.9004 and 4.9391 and 4.9107; Ln Concentration (human hepatocytes; time 0 min): 3.4977 and 3.5184 and 3.3762; Ln Concentration (human hepatocytes; time 15 min): 4.0516 and 4.0675 and 3.8232; Ln Concentration (human hepatocytes; time 30 min): 3.7647 and 3.6457 and 3.2925; Ln Concentration (human hepatocytes; time 60 min): 4.1190 and 4.0115 and 3.2249; Ln Concentration (human hepatocytes; time 120 min): 4.2452 and 3.9281 and 3.6055; Ln Concentration (human hepatocytes; time 240 min): 4.5149 and 4.7648 and 4.7557; Linear Regression Best-Fit Slope (ln concentration vs time) (human hepatocytes): 0.000858
O=C(O)C(F)(OC(F)(F)C(F)(OC(F)(F)C(F)(OC(F)(F)C(F)(F)C(F)(F)F)C(F)(F)F)C(F)(F)F)C(F)(F)F (stereo not drawn) [HFPO-TeA, perfluoro-(2,5,8-trimethyl-3,6,9-trioxadodecanoic) acid]	0 L/h	12550 ng/mL	19 µM and 18.96 µM and 18.9581 µM	0.0105	0 µL/min	2.6401 and 2.4357 and 2.5979	3.3942 and 3.4965 and 3.9620	2.6401 and 2.4357 and 2.5979	3.6957 and 3.6025 and 3.5122	0 µL/min/106 cells	3.0306 and 2.9008 and 2.9997	3.0932 and 2.2706 and 2.9515	4.2083 and 3.3638 and 2.7617	3.2078 and 2.9997 and 2.8429	4.0404 and 3.2267 and 2.8611	4.3810 and 4.0785 and 4.0446	0.001258	3.2431 and 3.8547 and 4.8392	4.3983 and 4.1513 and 4.1952	0 µL/min/106 cells	Negative Control Data, Heat Treated (HT), Ln Concentration (human hepatocytes; 15 min): 3.2431 and 3.8547 and 4.8392; Negative Control Data, Heat Treated (HT), Ln Concentration (human hepatocytes; 240 min): 3.9071 and 4.4271 and 4.0870; Ln Concentration (human hepatocytes; time 0 min): 4.4318 and 4.5113 and 4.4280; Ln Concentration (human hepatocytes; time 15 min): 4.5753 and 4.4697 and 3.8582; Ln Concentration (human hepatocytes; time 30 min): 3.6875 and 3.5788 and 3.6553; Ln Concentration (human hepatocytes; time 60 min): 3.0465 and 3.5032 and 3.8121; Ln Concentration (human hepatocytes; time 120 min): 4.2197 and 4.3067 and 4.1488; Ln Concentration (human hepatocytes; time 240 min): 3.9567 and 3.8156 and 4.0422; Linear Regression Best-Fit Slope (ln concentration vs time) (human hepatocytes): 0.001224
O=C(O)C(F)(OC(F)(F)C(F)(F)C(F)(F)F)C(F)(F)F (stereo not drawn) [HFPO-DA, perfluoro-2-methyl-3-oxahexanoic acid]	0 L/h	2400 ng/mL	7.27 µM and 7.2674 µM	0.0547	0 µL/min	4.4280 and 4.9483 and 5.2322	4.4378 and 4.5247 and 4.4650	4.4280 and 4.9483 and 5.2322	4.5318 and 4.4615 and 4.4489	0 µL/min/106 cells	4.5114 and 4.4660 and 4.4552	4.5017 and 4.4578 and 4.5341	4.4026 and 4.3249 and 4.4576	4.2774 and 4.4540 and 4.5417	4.3832 and 4.5273 and 4.3707	4.5604 and 4.5454 and 4.5567	0.0002303	4.4067 and 4.8800 and 5.2467	4.0348 and 4.0907 and 4.1657	0 µL/min/106 cells	Negative Control Data, Heat Treated (HT), Ln Concentration (human hepatocytes; 15 min): 4.4067 and 4.8800 and 5.2467; Negative Control Data, Heat Treated (HT), Ln Concentration (human hepatocytes; 240 min): 4.6325 and 4.7203 and 4.8737; Ln Concentration (human hepatocytes; time 0 min): 4.0945 and 4.2370 and 4.1735; Ln Concentration (human hepatocytes; time 15 min): 4.1372 and 3.3218 and 3.8504; Ln Concentration (human hepatocytes; time 30 min): 4.2468 and 4.1368 and 4.2711; Ln Concentration (human hepatocytes; time 60 min): 4.1233 and 4.2750 and 4.2651; Ln Concentration (human hepatocytes; time 120 min): 4.3345 and 4.3751 and 4.3328; Ln Concentration (human hepatocytes; time 240 min): 4.9658 and 4.7177 and 4.8428; Linear Regression Best-Fit Slope (ln concentration vs time) (human hepatocytes): 0.0006364

Reference: article PMC10747602, “Dose Response, Dosimetric, and Metabolic Evaluations of Replacement PFAS Perfluoro-(2,5,8-trimethyl-3,6,9-trioxadodecanoic) Acid (HFPO-TeA)” (Toxics, 2023)
